What was measured:
[1] = test system: glycoproteins on fixed HeLa cells; test: CAR imaging of WGA binding to glycoproteins on fixed HeLa cells; conditions: glass surface, ~61.0 degrees, 50 μg/ml WGA, average of the 9 cells
Experimental: Next, CAR imaging was used to repeat the glycoprotein-WGA binding measurement. The cells were cultured on a glass surface, and the bright field image and the corresponding CAR image of 9 cells are shown in FIG. 7e. The cells show dark patterns because they have higher refractive index than the background. θi was set at ~61.0 degrees with similar sensitivity to SPR. […] The minor disagreement in kinetic constants might reflect different surfaces and different light illumination depth between SPR and CAR. Fluorescence images captured during the CAR measurement confirmed the binding of WGA (FIG. 7g). […] For this reason, CAR is believed to be more compatible with fluorescence than SPR, and suitable for measuring biological samples that need simultaneous fluorescent labelling.
(§1) All the cell-related experiments including CAR, SPR, transmitted and fluorescence measurements (FIGS. 7-9) were performed on an objective-based SPR microscope setup, which consisted of an inverted microscope (Olympus IX-81) and a 60× (NA 1.49) oil-immersion objective. The light source for CAR and SPR imaging was a superluminescent light emitting diode (SLD-260-HP-TOW-PD-670, Superlum, Ireland) with 670 nm wavelength. The light source for transmitted and fluorescence imaging were the stocking halogen and mercury lamp of the microscope, respectively. A CMOS camera (ORCA-Flash 4.0, Hamamatsu) was used to record the images. A gravity-based drug perfusion system (SF-77B, Warner Instruments, Connecticut) was used for delivering analytes to the cells.
HeLa, SH-EP1, and SH-EP1_α4β2 cells were obtained from the American Type Culture Collection. The cells were cultured in Dulbecco's modified eagle medium (Lonza) with 10% fetal bovine serum (Invitrogen) and 1% penicillin and streptomycin in a humidified incubator at 37° C. with 5% CO2. […]
(§2) WinSpall 3.01 (Resonant Technologies GmbH, Germany) was used to calculate the reflectivity as a function of incident angle for CAR and SPR. The recorded CAR and SPR images were processed with ImageAnalysis (Biosensing Instrument Inc.) and Fiji. […]

[2] = test system: glycoproteins on fixed HeLa cells; test: SPR imaging of WGA binding to glycoproteins on fixed HeLa cells; conditions: gold surface, 50 μg/ml WGA, average of 10 cells
Experimental: SPR was first used to measure glycoprotein-WGA interaction on fixed HeLa cells (FIG. 7a). The cells were cultured on a gold surface and fixed right before the measurement (FIG. 7b). PBS buffer was flowed over the surface to establish a baseline and then introduced 50 μg/ml WGA (FIG. 7c). Binding of WGA to the glycoproteins increased the surface refractive index and caused the SPR signal to increase. After the association process, PBS buffer was flowed in again to induce dissociation of WGA from the cells. […] The WGA was labeled with Alexa Fluor 488, allowing verification of the binding using fluorescence. Three fluorescence images were captured at different phases of the binding process: at the baseline, after association, and after dissociation (FIG. 7d) respectively. The fluorescence change, although weak, confirmed that the SPR signal was due to the binding.
as §1
HeLa, SH-EP1, and SH-EP1_α4β2 cells were obtained from the American Type Culture Collection. […]
as §2

WGA: lectin that specifically binds N-acetylglucosamine structures in glycoproteins; with Alexa Fluor 488 tag, Thermo Fisher Scientific
Kd [1]: 42 ± 1 nM | ka [1]: (6.0±0.1)×10^3 M^−1s^−1 | kd [1]: (2.6±0.1)×10^−4 s^−1 | Kd [2]: 53 ± 1 nM | ka [2]: (2.5±0.1)×10^3 M^−1s^−1 | kd [2]: (1.3±0.1)×10^−4 s^−1

Reference: US12704458B2, “Critical angle reflection imaging for quantification of molecular interactions” (ARIZONA BOARD OF REGENTS ON BEHALF OF ARIZONA STATE …, priority 2020, dated 2026)
